From US7759373B2, “Large conductance calcium-activated K channel opener” (Mitsubishi Tanabe Pharma Corporation, priority 2001, dated 2010)

Tests used:
[1] = test system: isolated rabbit urinary bladder; test: Relaxation effect on potassium-induced contraction of isolated rabbit urinary bladder; type: cell-based; details: Oryctolagus cuniculus; 50% relaxation concentration; high-K+ (30 mM) pre-contracted rabbit bladder strips; relaxation as percentage of the maximum produced by 0.1 mM papaverine; read-out: EC50 value range
Protocol: Relaxation effect on potassium-induced contraction of isolated rabbit urinary bladder
Urinary bladder was isolated from Male NZW rabbits (2.0-3.5 kg) and immersed in ice-cold Krebs-bicarbonate solution (in mM: 118 NaCl, 4.7 KCl, 1.2, 2.5 CaCl2, MgSO4, 1.2 KH2PO4, 11 glucose, 25 NaHCO3). The urinary bladder was cut into longitudinal strips (5 mm length, 3-4 mm width) after mucosal layer was removed. Preparations were mounted in organ baths containing 10 ml of Krebs solution maintained at 37° C. and gassed with 95% O2/5% CO2. Accordingly, preparations were stretched with an initial tension of 2.0±1.0 g, and changes in isometric tension were measured by force-displacement transducer. The preparations were pre-contracted by changing organ-bath solution into high-K^+ (30 mM) Krebs solution (in mM: 92.7 NaCl, 30 KCl, 1.2, 2.5 CaCl2, MgSO4, 1.2 KH2PO4, 11 glucose, 25 NaHCO3).
After stable tension was obtained, compounds were added into organ baths cumulatively (10^−8M-10^−4M). The effects of compounds were expressed as a percentage of the maximum relaxation produced by 0.1 mM papaverine. 50% relaxation concentration (EC50) was calculated and EC50 value range (μM) of the compounds of the present invention was shown in the following Table 64 with a rank of A, B or C. These ranges are as mentioned below. 3≧C≧1≧B≧0.5≧A

[2] = test system: rhythmic bladder contractions induced by substance P; test: Inhibitory effect on the rhythmic bladder contractions induced by substance P in anesthetized rats; type: in vivo, rat; details: time during which frequency of rhythmic contraction was completely inhibited, 0.25 mg/kg of the compound, substance P infusion
In short: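 Value is duration (min) of complete inhibition of bladder contractions, ranked A/B/C at 20 and 10 min cut-offs. Intravenous dosing (0.5% Tween 80 saline) in female SD rats under urethane, bladder saline-filled and contractions maintained by substance P infusion, 0.33 μg/kg/min.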

SMILES | EC50 [1] [nM] | 100% inhibition time range [2]
CSc1ncc(-c2nc(CC(=O)O)c(-c3ccc(Cl)s3)o2)cn1 [Preparation Example 445] | 1000 to 3000 | A (A≧20>B≧10>C (minute))
O=C(O)Cc1nc(-c2ccc(F)cc2)oc1-c1ccsc1 [Preparation Example 197] | 1000 to 3000 | C (A≧20>B≧10>C (minute))
CCCc1nc(-c2csc(Cl)c2)[nH]c1-c1ccccc1 [Preparation example 34] | 1000 to 3000 | A (A≧20>B≧10>C (minute))
CSCc1nc(-c2ccc(C#N)cc2)[nH]c1-c1ccccc1 [Preparation example 132] | 500 to 1000 | B (A≧20>B≧10>C (minute))
CN(C)c1ccc(-c2nc(-c3ccc(Cl)cc3)c(CC(=O)O)s2)cn1 [Preparation Example 576] | 500 to 1000 | A (A≧20>B≧10>C (minute))
O=C(O)Cc1nc(-c2ccc(F)cc2)oc1-c1ccc(Cl)c(Cl)c1 [Preparation Example 240] | 500 to 1000 | C (A≧20>B≧10>C (minute))
CSc1ccc(-c2nc(CC(=O)[O-])c(-c3cccs3)o2)cn1.[Na+] [Preparation Example 366, 2-(6-methylthiopyridin-3-yl)-5-(2-thienyl)oxazol-4-yl acetic acid sodium salt] | ≤ 500 | C (A≧20>B≧10>C (minute))
CN(C)c1ccc(-c2nc(-c3cccs3)c(CC(=O)O)s2)cn1 [Preparation Example 579] | 500 to 1000 | C (A≧20>B≧10>C (minute))
CN(C)c1ncc(-c2nc(CC(=O)O)c(-c3ccc(Cl)s3)o2)cn1 [Preparation Example 362] | 1000 to 3000 | A (A≧20>B≧10>C (minute))
O=C(O)Cc1nc(-c2ccc3occc3c2)oc1-c1cc(Cl)cs1 [Preparation Example 288] | ≤ 500 | C (A≧20>B≧10>C (minute))
CCc1nc(-c2ccc(F)cc2)[nH]c1-c1ncccn1 [Preparation example 50] | 1000 to 3000 | C (A≧20>B≧10>C (minute))
COc1ccc(-c2nc(CC(=O)O)c(-c3cccs3)o2)cc1 [Preparation Example 155] | 1000 to 3000 | B (A≧20>B≧10>C (minute))
CN(C)c1ccc(-c2nc(CC(=O)O)c(-c3ccc(Cl)s3)o2)cc1 [Preparation Example 441] | 1000 to 3000 | B (A≧20>B≧10>C (minute))
COCc1ccc(-c2nc(CC(=O)O)c(-c3ccc(Cl)s3)o2)cn1 [Preparation Example 464] | 1000 to 3000 | C (A≧20>B≧10>C (minute))
CCOc1ccc(-c2nc(CC(=O)[O-])c(-c3ccc(Cl)s3)o2)cn1.[Na+] [Preparation Example 367, 2-(6-ethoxypyridin-3-yl)-5-(5-chlorothiophen-2-yl)oxazol-4-yl acetic acid sodium salt] | 500 to 1000 | A (A≧20>B≧10>C (minute))
O=C(O)Cc1nc(-c2cc3ccccc3s2)oc1-c1ccsc1 [Preparation Example 437] | ≤ 500 | B (A≧20>B≧10>C (minute))
Cc1nc(-c2ccc(F)cc2)[nH]c1-c1ccsc1 [Preparation Example 168] | 500 to 1000 | B (A≧20>B≧10>C (minute))
CSc1ccc(-c2nc(-c3ccc(Cl)s3)c(CC(=O)O)s2)cc1 [Preparation Example 590] | ≤ 500 | B (A≧20>B≧10>C (minute))
Cc1cccc(-c2nc(CC(=O)O)c(-c3cccs3)o2)c1 [Preparation Example 432] | ≤ 500 | C (A≧20>B≧10>C (minute))
O=C(O)Cc1nc(-c2cnc3occc3c2)oc1-c1ccc(Cl)s1 [Preparation Example 444] | 1000 to 3000 | B (A≧20>B≧10>C (minute))
CN(C)c1ncc(-c2nc(CC(=O)O)c(-c3ccc(Cl)c(S)c3)o2)cn1 [Preparation Example 364] | 1000 to 3000 | B (A≧20>B≧10>C (minute))
O=C(O)Cc1sc(-c2cc3ccccc3s2)nc1-c1ccc(Cl)cc1 [Preparation Example 574] | 1000 to 3000 | B (A≧20>B≧10>C (minute))
COc1ccc(-c2nc(CC(=O)O)c(-c3ccsc3)o2)cc1C [Preparation Example 438] | 1000 to 3000 | C (A≧20>B≧10>C (minute))
O=C(O)Cc1nc(-c2ccc(F)cc2)oc1-c1ccc(Cl)cc1 [Preparation Example 243] | ≤ 500 | A (A≧20>B≧10>C (minute))

SMILES | EC50 [1] [nM] | 100% inhibition time range [2]
CN1CCc2cc(-c3nc(CC(=O)O)c(-c4ccc(Cl)s4)o3)ccc21 [Preparation Example 453] | 500 to 1000 | C (A≧20>B≧10>C (minute))
CNC(=O)Cc1nc(-c2ccc(F)cc2)oc1-c1ccsc1 [Preparation Example 374] | 1000 to 3000 | C (A≧20>B≧10>C (minute))
CS(=O)(=O)NCCc1nc(-c2ccc(F)cc2)oc1-c1ccsc1.[Na] [Preparation Example 378, 2-(4-fluoro-phenyl)-4-methanesulfonylaminoethyl-5-(3-thienyl)oxazole sodium salt] | 1000 to 3000 | C (A≧20>B≧10>C (minute))
O=C(O)Cc1nc(-c2ccc(F)cc2)oc1-c1csc2ccccc12 [Preparation Example 158] | 1000 to 3000 | C (A≧20>B≧10>C (minute))
CCc1nc(-c2ccc(F)cc2)[nH]c1-c1ccsc1 [Preparation Example 171] | 1000 to 3000 | B (A≧20>B≧10>C (minute))
CCCc1nc(-c2ccc(F)cc2)[nH]c1-c1ccsc1 [Preparation Example 172] | 1000 to 3000 | C (A≧20>B≧10>C (minute))
O=C(O)Cc1nc(-c2cc3ccccc3o2)oc1-c1ccc(Cl)s1 [Preparation Example 435] | 500 to 1000 | B (A≧20>B≧10>C (minute))
O=C(O)Cc1nc(-c2ccc3ncccc3c2)oc1-c1ccc(Cl)s1 [Preparation Example 284] | 1000 to 3000 | B (A≧20>B≧10>C (minute))
C[S+]([O-])Cc1nc(-c2ccc(F)cc2)[nH]c1-c1ccsc1 (stereo not shown) [Preparation Example 181] | 500 to 1000 | B (A≧20>B≧10>C (minute))
Cc1ccc(-c2nc(CC(=O)O)c(-c3ccccc3)o2)cc1 [Preparation Example 262] | 1000 to 3000 | C (A≧20>B≧10>C (minute))
O=C(O)Cc1nc(-c2ccc3c(c2)OCCO3)oc1-c1ccc(Cl)s1 [Preparation Example 283] | ≤ 500 | C (A≧20>B≧10>C (minute))
Cc1nc(-c2ccc(F)cc2)[nH]c1-c1cccnc1 [Preparation Example 187] | 500 to 1000 | B (A≧20>B≧10>C (minute))
Cn1ccc2cc(-c3nc(CC(=O)O)c(-c4ccc(Cl)s4)o3)ccc21 [Preparation Example 469] | 1000 to 3000 | B (A≧20>B≧10>C (minute))
O=C(O)Cc1nc(-c2ccc3occc3c2)oc1-c1ccsc1 [Preparation Example 255] | 1000 to 3000 | B (A≧20>B≧10>C (minute))
O=C(O)Cc1nc(-c2cc3ccccc3s2)oc1-c1ccc(Cl)s1 [Preparation Example 271] | 500 to 1000 | C (A≧20>B≧10>C (minute))
O=C(O)Cc1nc(-c2ccc3c(c2)CCO3)oc1-c1ccc(Cl)s1 [Preparation Example 282] | 500 to 1000 | B (A≧20>B≧10>C (minute))
CCCc1nc(-c2cccc(F)c2)[nH]c1-c1ccccc1 [Preparation example 30] | 1000 to 3000 | B (A≧20>B≧10>C (minute))
COc1ccc(-c2nc(CC(=O)O)c(-c3ccc(Cl)s3)o2)cc1Cl [Preparation Example 280] | ≤ 500 | C (A≧20>B≧10>C (minute))
O=C(O)Cc1nc(-c2ccccc2)oc1-c1ccc(Cl)s1 [Preparation Example 279] | ≤ 500 | C (A≧20>B≧10>C (minute))
O=C(O)Cc1nc(-c2cc3ccc(F)cc3s2)oc1-c1ccc(Cl)s1 [Preparation Example 451] | 1000 to 3000 | B (A≧20>B≧10>C (minute))
CN(C)c1ncc(-c2nc(-c3ccc(Cl)s3)c(CC(=O)O)s2)cn1 [Preparation Example 600] | ≤ 500 | A (A≧20>B≧10>C (minute))
O=C(O)Cc1nc(-c2cc3ccccc3s2)oc1-c1cccs1 [Preparation Example 267] | ≤ 500 | C (A≧20>B≧10>C (minute))
CSc1ncc(-c2nc(-c3ccc(Cl)s3)c(CC(=O)O)s2)cn1 [Preparation Example 572] | 1000 to 3000 | C (A≧20>B≧10>C (minute))
